These results are taken from ChEMBL document CHEMBL3991601, “The target landscape of clinical kinase drugs” (Science, 2017).

Activity calls are given as the source filed them. For most assays here, no stated cut-off is given here; in the data, actives have a measured Kd and inactives only a lower limit.

Among the targets are Midasin (Homo sapiens, UniProt Q9NU22); TGF-beta receptor type-2 (Homo sapiens, UniProt P37173); Aurora kinase B (Homo sapiens, UniProt Q96GD4).
A further experiment addresses T1, Activin receptor type-1B (Homo sapiens, UniProt P36896).
T1 sequence (P36896 whole entry): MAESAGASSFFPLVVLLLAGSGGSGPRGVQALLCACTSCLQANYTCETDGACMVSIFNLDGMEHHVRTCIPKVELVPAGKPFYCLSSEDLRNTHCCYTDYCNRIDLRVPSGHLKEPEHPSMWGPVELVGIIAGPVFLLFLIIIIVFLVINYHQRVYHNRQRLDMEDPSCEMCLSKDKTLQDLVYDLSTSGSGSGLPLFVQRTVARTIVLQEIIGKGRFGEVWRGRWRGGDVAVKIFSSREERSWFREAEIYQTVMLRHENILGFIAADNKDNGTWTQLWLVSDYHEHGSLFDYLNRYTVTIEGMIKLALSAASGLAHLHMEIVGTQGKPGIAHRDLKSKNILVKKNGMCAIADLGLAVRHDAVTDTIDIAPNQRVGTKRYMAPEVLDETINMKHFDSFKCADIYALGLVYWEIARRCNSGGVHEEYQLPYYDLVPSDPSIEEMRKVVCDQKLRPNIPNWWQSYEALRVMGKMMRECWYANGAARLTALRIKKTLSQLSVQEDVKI

The target in a further experiment is T2, Activin receptor type-1 (Homo sapiens, UniProt Q04771).
T2 sequence (Q04771 whole entry): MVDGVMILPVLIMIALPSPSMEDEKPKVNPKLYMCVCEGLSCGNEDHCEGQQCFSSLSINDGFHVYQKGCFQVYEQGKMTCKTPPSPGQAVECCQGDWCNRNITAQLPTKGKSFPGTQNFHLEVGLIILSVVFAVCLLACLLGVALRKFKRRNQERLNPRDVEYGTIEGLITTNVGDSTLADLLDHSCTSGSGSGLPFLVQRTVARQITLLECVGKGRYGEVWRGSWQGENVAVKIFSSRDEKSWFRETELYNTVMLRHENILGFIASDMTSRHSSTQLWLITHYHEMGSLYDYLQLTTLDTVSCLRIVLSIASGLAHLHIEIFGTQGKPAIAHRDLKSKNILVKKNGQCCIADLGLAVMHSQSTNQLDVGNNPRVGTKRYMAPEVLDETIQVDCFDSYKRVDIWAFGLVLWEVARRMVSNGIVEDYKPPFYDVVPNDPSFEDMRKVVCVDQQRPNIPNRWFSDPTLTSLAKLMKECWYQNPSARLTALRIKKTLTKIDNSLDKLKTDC

The target in experiment [1] is Ribosomal protein S6 kinase alpha-1 (Homo sapiens, UniProt Q15418).
Chain of Ribosomal protein S6 kinase alpha-1 (Q15418 whole entry): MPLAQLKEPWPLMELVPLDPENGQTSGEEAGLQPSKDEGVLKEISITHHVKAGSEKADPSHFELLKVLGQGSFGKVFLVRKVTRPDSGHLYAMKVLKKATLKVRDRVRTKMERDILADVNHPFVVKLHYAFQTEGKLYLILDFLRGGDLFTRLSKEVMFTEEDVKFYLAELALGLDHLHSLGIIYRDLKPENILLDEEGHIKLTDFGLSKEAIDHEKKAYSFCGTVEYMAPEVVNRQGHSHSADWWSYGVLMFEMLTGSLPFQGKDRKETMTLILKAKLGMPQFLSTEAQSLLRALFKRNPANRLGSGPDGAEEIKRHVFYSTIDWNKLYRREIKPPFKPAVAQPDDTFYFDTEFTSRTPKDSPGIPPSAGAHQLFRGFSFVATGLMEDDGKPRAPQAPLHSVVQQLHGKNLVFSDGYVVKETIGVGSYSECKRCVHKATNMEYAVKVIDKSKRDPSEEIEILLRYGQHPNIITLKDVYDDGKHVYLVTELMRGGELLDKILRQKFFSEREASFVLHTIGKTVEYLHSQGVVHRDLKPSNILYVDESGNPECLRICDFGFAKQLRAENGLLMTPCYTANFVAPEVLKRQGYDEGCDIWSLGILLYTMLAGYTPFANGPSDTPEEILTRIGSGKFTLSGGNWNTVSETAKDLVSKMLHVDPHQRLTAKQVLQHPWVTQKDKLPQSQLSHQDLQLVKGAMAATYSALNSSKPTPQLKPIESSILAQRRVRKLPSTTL
Experiment [2] addresses Mitogen-activated protein kinase 3 (Homo sapiens, UniProt P27361).
Experiment [3] has as its target Glycogen synthase kinase-3 beta (Homo sapiens, UniProt P49841).
For experiment [4], the target named is MAP kinase-activated protein kinase 2 (Homo sapiens, UniProt P49137).
Chain of MAP kinase-activated protein kinase 2 (P49137 whole entry): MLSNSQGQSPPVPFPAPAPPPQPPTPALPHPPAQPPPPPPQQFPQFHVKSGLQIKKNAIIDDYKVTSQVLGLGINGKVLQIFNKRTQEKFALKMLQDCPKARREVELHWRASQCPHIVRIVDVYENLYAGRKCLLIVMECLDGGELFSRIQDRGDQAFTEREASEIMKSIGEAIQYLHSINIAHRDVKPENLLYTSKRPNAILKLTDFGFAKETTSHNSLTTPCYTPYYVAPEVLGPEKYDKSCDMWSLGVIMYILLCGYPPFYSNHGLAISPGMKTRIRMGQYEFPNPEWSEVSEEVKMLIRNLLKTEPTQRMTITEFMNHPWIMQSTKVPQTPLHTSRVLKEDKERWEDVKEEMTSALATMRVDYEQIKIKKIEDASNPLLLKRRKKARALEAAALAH
In experiment [5] the target is T3, Peroxisomal acyl-coenzyme A oxidase 1 (Homo sapiens, UniProt Q15067).
T3 sequence (Q15067 whole entry): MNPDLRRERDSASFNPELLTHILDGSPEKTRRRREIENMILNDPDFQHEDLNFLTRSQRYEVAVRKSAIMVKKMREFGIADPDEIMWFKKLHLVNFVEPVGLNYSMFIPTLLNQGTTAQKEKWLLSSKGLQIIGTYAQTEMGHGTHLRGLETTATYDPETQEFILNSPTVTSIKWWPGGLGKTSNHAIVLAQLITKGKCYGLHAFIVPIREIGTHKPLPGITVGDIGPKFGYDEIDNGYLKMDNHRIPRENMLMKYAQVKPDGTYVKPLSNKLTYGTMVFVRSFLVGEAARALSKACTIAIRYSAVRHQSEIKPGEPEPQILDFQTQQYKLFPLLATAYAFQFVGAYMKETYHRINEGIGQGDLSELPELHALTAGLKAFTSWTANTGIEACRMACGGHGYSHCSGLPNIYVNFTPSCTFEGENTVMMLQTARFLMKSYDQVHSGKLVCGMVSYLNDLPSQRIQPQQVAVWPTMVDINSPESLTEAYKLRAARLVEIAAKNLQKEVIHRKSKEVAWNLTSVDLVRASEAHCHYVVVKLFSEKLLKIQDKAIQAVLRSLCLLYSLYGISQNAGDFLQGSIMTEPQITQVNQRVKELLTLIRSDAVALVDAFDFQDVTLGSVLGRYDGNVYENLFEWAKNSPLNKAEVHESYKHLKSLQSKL

Experiment [6] has as its target cAMP-dependent protein kinase catalytic subunit gamma (Homo sapiens, UniProt P22612).
The target of experiment [7] is Tyrosine-protein kinase HCK (Homo sapiens, UniProt P08631).
Chain of Tyrosine-protein kinase HCK (P08631 whole entry): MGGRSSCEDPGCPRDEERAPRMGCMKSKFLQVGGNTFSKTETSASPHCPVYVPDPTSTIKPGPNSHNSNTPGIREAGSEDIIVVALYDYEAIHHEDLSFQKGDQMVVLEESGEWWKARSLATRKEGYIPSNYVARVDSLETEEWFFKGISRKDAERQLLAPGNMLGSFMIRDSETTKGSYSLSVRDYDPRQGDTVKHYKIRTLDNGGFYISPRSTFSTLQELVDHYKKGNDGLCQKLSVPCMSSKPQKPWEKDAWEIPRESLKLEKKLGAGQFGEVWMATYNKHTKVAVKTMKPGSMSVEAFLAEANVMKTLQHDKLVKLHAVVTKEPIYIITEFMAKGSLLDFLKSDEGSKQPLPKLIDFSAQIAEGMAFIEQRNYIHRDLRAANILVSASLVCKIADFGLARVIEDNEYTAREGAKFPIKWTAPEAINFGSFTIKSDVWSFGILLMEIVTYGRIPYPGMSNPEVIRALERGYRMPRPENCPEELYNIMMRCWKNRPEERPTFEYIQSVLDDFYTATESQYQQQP
Experiment [8] deals with MAP/microtubule affinity-regulating kinase 3 (Homo sapiens, UniProt P27448).
Chain of MAP/microtubule affinity-regulating kinase 3 (P27448 whole entry): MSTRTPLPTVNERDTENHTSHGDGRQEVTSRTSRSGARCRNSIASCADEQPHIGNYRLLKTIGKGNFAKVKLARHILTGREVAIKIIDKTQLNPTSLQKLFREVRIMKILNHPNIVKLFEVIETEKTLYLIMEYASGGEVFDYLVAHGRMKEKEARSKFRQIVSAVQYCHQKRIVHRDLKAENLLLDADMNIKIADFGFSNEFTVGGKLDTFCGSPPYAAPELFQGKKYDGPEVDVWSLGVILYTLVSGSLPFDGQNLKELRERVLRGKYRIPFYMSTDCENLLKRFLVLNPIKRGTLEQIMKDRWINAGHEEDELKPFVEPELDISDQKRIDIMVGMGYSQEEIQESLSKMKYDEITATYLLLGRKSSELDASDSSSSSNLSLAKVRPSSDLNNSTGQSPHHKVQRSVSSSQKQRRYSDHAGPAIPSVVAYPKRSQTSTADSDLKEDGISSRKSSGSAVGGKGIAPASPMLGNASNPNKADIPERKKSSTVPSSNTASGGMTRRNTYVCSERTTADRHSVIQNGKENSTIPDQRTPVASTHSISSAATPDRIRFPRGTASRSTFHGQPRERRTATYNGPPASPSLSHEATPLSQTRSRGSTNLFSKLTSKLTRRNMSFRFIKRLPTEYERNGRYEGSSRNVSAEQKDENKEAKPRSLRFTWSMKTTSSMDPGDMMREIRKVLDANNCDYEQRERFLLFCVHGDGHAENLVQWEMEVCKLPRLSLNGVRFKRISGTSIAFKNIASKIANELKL
In experiment [9] the target is cAMP-dependent protein kinase catalytic subunit beta (Homo sapiens, UniProt P22694).

Chain of cAMP-dependent protein kinase catalytic subunit gamma (P22612 whole entry): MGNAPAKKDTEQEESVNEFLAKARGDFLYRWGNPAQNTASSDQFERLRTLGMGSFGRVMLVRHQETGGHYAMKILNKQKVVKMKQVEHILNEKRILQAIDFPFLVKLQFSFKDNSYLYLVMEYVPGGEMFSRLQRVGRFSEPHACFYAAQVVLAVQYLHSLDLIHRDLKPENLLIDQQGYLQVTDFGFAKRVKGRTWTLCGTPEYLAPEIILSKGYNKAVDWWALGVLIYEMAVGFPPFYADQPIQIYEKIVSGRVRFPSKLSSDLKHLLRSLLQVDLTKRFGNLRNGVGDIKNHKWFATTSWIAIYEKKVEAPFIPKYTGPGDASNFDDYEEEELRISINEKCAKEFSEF
Chain of TGF-beta receptor type-2 (P37173 whole entry): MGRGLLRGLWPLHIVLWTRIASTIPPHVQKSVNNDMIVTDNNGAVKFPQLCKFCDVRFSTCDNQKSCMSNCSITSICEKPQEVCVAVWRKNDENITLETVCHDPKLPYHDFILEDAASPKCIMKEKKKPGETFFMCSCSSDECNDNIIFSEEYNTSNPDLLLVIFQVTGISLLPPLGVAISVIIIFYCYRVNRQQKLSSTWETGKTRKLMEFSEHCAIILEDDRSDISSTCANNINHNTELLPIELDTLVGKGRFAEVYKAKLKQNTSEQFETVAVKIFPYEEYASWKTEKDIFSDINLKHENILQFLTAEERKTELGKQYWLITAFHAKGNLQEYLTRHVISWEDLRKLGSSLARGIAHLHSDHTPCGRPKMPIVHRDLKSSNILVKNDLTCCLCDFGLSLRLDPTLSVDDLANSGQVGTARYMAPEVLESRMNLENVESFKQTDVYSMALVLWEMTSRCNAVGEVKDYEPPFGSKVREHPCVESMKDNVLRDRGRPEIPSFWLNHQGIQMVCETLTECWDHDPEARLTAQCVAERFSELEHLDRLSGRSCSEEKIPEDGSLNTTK
Chain of Glycogen synthase kinase-3 beta (P49841 whole entry): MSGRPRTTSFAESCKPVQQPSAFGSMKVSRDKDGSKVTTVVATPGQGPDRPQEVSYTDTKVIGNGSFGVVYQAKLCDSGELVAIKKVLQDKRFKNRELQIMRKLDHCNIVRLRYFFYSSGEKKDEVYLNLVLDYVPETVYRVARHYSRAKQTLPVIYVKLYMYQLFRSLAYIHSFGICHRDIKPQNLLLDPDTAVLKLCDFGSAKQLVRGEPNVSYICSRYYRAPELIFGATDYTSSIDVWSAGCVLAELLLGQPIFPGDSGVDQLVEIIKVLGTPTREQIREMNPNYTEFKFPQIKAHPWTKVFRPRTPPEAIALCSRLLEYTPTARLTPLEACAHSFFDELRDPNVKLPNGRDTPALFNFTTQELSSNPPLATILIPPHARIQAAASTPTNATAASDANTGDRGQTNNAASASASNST
Chain of Mitogen-activated protein kinase 3 (P27361 whole entry): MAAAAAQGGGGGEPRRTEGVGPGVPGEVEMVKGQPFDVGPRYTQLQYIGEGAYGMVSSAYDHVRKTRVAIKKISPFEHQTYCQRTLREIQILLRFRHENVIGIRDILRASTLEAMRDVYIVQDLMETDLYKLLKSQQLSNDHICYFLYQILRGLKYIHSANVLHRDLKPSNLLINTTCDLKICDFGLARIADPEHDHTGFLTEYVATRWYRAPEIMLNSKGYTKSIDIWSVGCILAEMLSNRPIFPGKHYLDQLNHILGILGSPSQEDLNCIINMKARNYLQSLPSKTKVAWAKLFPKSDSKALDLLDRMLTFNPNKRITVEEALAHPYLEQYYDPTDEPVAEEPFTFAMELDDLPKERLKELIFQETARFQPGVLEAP
Chain of Aurora kinase B (Q96GD4 whole entry): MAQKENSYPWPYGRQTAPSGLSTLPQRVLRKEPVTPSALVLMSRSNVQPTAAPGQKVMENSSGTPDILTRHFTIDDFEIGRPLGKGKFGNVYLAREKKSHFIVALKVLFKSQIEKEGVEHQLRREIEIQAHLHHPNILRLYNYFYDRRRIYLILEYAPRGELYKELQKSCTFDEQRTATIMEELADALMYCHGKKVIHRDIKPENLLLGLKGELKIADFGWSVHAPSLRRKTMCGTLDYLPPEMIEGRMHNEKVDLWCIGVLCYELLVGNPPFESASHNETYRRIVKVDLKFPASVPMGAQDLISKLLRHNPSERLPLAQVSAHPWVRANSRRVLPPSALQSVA

With `Cc1cc2c(F)c(Oc3ncnn4cc(OC[C@@H](C)OC(=O)[C@H](C)N)c(C)c34)ccc2[nH]1` [BRIVANIB ALANINATE], the Kd (on Activin receptor type-1B; on Activin receptor type-1; in experiment [1]; in experiment [2]; in experiment [3]; at Midasin) was > 30 µM (inactive) in each case. Further, the Kd in experiment [4], in [5], in [6], in [7], in experiment [8] and in experiment [9] was > 30 µM (inactive) throughout. Moreover, the Kd at TGF-beta receptor type-2 and at Aurora kinase B was > 30 µM (inactive) throughout.

With `CNC(=O)c1cc(Oc2ccc(NC(=O)Nc3ccc(Cl)c(C(F)(F)F)c3)c(F)c2)ccn1` [REGORAFENIB], the Kd (on Activin receptor type-1B; at Activin receptor type-1; in [1]; in experiment [2]; in experiment [3]; at Midasin) was > 30 µM (inactive) in each case. For the same molecule, the Kd (usually a measure of binding affinity in units of concentration) in experiment [4] is 0.682 µM (active); in [5], > 30 µM (inactive); in experiment [6], > 30 µM (inactive); in experiment [7], > 30 µM (inactive); in [8], > 30 µM (inactive); in experiment [9] it was > 30 µM (inactive). The Kd at TGF-beta receptor type-2 and on Aurora kinase B was > 30 µM (inactive) each time.

For `COC(=O)N[C@@H](C)CNc1nccc(-c2cn(C(C)C)nc2-c2cc(Cl)cc(NS(C)(=O)=O)c2F)n1` [ENCORAFENIB], the Kd was > 30 µM (inactive) at Activin receptor type-1B; > 30 µM (inactive) on Activin receptor type-1; > 30 µM (inactive) in experiment [1]; > 30 µM (inactive) in experiment [2]; 0.425 µM (active) in experiment [3]; > 30 µM (inactive) at Midasin. The Kd in [4] was 14.7 µM (active); in experiment [5], > 30 µM (inactive); in experiment [6] it was > 30 µM (inactive); in [7], > 30 µM (inactive); in experiment [8], > 30 µM (inactive); in experiment [9], > 30 µM (inactive). Further, the Kd on TGF-beta receptor type-2 and at Aurora kinase B was > 30 µM (inactive) in each case.

As for `Cc1cc(-c2cc(O)ccc2Cl)cc2nnc(Nc3ccc(OCCN4CCCC4)cc3)nc12`, the Kd on Activin receptor type-1B was 0.001 µM (active); on Activin receptor type-1 it was > 30 µM (inactive); in [1] it was > 30 µM (inactive); in experiment [2] it was > 30 µM (inactive); in [3] it was > 30 µM (inactive); at Midasin, > 30 µM (inactive). For the same molecule, the Kd in [4], in experiment [5], in experiment [6], in experiment [7], in experiment [8] and in [9] was > 30 µM (inactive) in each case. Further, the Kd on TGF-beta receptor type-2 and on Aurora kinase B was > 30 µM (inactive) in each case.

With `CO[C@H]1C[C@@H]2CC[C@@H](C)[C@@](O)(O2)C(=O)C(=O)N2CCCC[C@H]2C(=O)O[C@H]([C@H](C)C[C@@H]2CC[C@@H](OCCO)[C@H](OC)C2)CC(=O)[C@H](C)/C=C(\C)[C@@H](O)[C@@H](OC)C(=O)[C@H](C)C[C@H](C)/C=C/C=C/C=C/1C` [EVEROLIMUS], the Kd (at Activin receptor type-1B; on Activin receptor type-1; in experiment [1]; in [2]; in [3]; at Midasin) was > 30 µM (inactive) in each case. For the same molecule, the Kd in [4], in experiment [5], in experiment [6], in experiment [7], in experiment [8] and in [9] was > 30 µM (inactive) throughout. Besides, the Kd at TGF-beta receptor type-2 and on Aurora kinase B was > 30 µM (inactive) each time.
